Like-named read-outs stand apart in the source and are kept apart here.
Tests used:
[1] = tested on: osteoclast differentiation; test: Inhibitory effect on osteoclast differentiation, co-culture of bone marrow cells and osteoblast, TRAP staining; assay type: cell-based, mouse; details: Mus musculus, Osteoclast, 168 h, read-out: inhibitory effect on osteoclast differentiation(%)
Outline: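 Mouse ddY bone marrow cells (25,000/cm^2) were co-cultured with neonatal ICR calvarial osteoblasts (10,000/cm^2) and compound for 7 days, with 10^−7 M dexamethasone and 10^−8 M vitamin D3, refreshed every 2–3 days. TRAP-positive cells with ≥3 nuclei were counted and expressed as % inhibition versus negative controls.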

[2] = tested on: ovariectomized white mouse; test: Therapeutic effect in mouse model of osteoporosis induced by ovariectomy, trabecular bone volume of the femur by histomorphometry; assay type: in vivo; details: read-out: Changes in trabecular bone volume (% relative to vehicle control)
Protocol: The therapeutic effect of each benzamidine derivate of the present invention was evaluated on the ovariectomized white mouse. The substances of Examples 18, 19 and 72 were administered from 4 weeks after operation for 4 weeks and the substances of Examples 27, 33, 36, 47, 53 and 59 were administered from 3 days after operation for 29 days. Thereafter, the changes in the trabecular bone volume (TBV) of the femur were observed via histomorphometry.
Female ddY mice (6-week-old, SLC, Japan) were used after acclimatization for 7 days. Animals to be test were allocated 5 per a plastic cage for mice, and raised in a temperature (20 to 25[…]) and humidity (30 to 35%) controlled room. Feed and water were supplied free to access.
Salts of the benzamidine derivative of the present invention (methanesulfonic acid or HCl) were dissolved or suspended in sterilized, distilled water or 5% DMSO, and administered at a dose of 10 ml per body weight (kg) in the form of a solution. The substances of Examples 18, 19 and 72 were administered from 4 weeks after operation for 4 weeks, and the substances of Examples 27, 33, 36, 47, 53 and 59 were administered from 3 days after operation for 29 days each at 50 mg/kg/day.
After all animals anesthetize using ketamine hydrochloride and xylazine hydrochloride, bilateral ovaries were removed in order to induce estrogen-deficient osteoporosis. After ovariectomy, the […] were closed by routine methods.
The left femur was separated at a final sacrifice day, and fixed in 10% neutral formalin, then decalcified in a decalcifying solution (solution composed of 2.44% formic acid, and 0.5 N sodium hydroxide). The decalcifying solution was exchanges once a day for 5 days. After completion of the decalcification, the femur was embedded in paraffin, sectioned (3 to 4 μM), and stained with a hematoxylin-eosin stain. Observation was made using optical micrography.
The trabecular bone volume was calculated using automated image analysis (analysis Image Processing; SIS, Germany) in the femur using a femur histological specimen prepared in the above manner. The trabecular bone volume was calculated as percentage (%) levels.
All the numeral values were determined and compared to that of the vehicle control used in each experiment, using the calculation by the following Equation 1. Change(%)=[(trabecular bone volume of a−trabecular bone volume of b)/trabecular bone volume of b]×100 [Equation 1]
a: Experiment group, b: Vehicle group

[3] = tested on: MC3T3; test: Cytotoxicity test (MTT), MC3T3; assay type: cell-based; details: 10^−6M, 72 hrs, in comparison with the control group
Protocol: (§1) The cytotoxic effect of the benzamidine derivative of the present invention was evaluated by carrying out the experiment described below.
(§2) The test substance was diluted in an appropriate solvent at a 10^−2 M concentration. This substance was diluted in an appropriate culture medium for the cells used in the cytotoxicity test to a concentration of […], and loaded into a 96-well plate in 100 μl per well. The cell lines to be used in the cytotoxicity test were plated on a 96-well plate in a dose of 1.0×10^4 cells/1OO μl per well and cultured for 72 hrs. 25 μl of MTT [3-(4,5-dimethyl-2-thiazolyl)-2,5-diphenyl-2H-tetrazolium bromide] dissolved in PBS (2 mg/mL) were added before 4 hrs of the end of culture. After completion of the reaction, the plates were centrifuged, the medium was discarded and 100 μl of DMSO was added to dissolve formazan. Finally, the absorbance of the developed plates was measured at 540 nm. The survival rates of the cells were expressed as % concentration values in comparison with the control group.

[4] = tested on: HOS; test: Cytotoxicity test (MTT), HOS; assay type: cell-based; details: 10^−6M, 72 hrs, in comparison with the control group
Protocol: as §1, §2

[5] = tested on: calvaria; test: Cytotoxicity test (MTT), calvaria; assay type: cell-based; details: 10^−6M, 72 hrs, in comparison with the control group
Protocol: as §1, §2

[6] = 1 μm, 7 days co-culture, TRAP-positive osteoclasts with 3 or more nuclei, relative to negative controls
[7] = 696 h, ovariectomized ddY mice, femur, 50 mg/kg/day, administered from 3 days after operation for 29 days
[8] = 672 h, ovariectomized ddY mice, femur, 50 mg/kg/day, administered from 4 weeks after operation for 4 weeks

SMILES	inhibition at 1 µM [1, 6]	change in vivo at 50 mg/kg/day [2, 7]	inhibition at 1 µM [1]	survival rates of the cells [3]	change in vivo at 50 mg/kg/day ([2]; 696 h)	survival rates of the cells [4]	survival rates of the cells [5]	change in vivo at 50 mg/kg/day [2, 8]	change in vivo at 50 mg/kg/day ([2]; 672 h)
CC(C)c1nc(-c2ccc(OCCCCCOc3ccc(C(=N)NO)cc3)cc2)c(CCN2CCOCC2)s1 [Example 27, N-hydroxy-4-(5-{4-[2-isopropyl-5-(2-morpholin-4-yl-ethyl)-thiazol-4-yl]-phenoxy}-pentyloxy)-benzamidine]	81%	23.6%							
N=C(NO)c1ccc(OCCCCCOc2ccc(-c3nc(C4CCCCC4)sc3CCN3CCSCC3)cc2)cc1 [Example 36, N-hydroxy-4-(5-{4-[2-cyclohexyl-5-(2-thiomorpholin-4-yl-ethyl)-thiazol-4-yl]-phenoxy}-pentyloxy)-benzamidine]			100%	97.6%	26.6%	81.4%	89.1%		
Cc1nc(-c2ccc(OCCCCCOc3ccc(C(=N)NO)cc3)cc2)c(CCN2CCN(C)CC2)s1 [Example 19, N-hydroxy-4-[5-(4-{2-methyl-5-[2-(4-methyl-piperazin-1-yl)-ethyl]-thiazol-4-yl}-phenoxy)-pentyloxy]-benzamidine]	100%							2.99%	
Cc1nc(-c2ccc(OCCCCCOc3ccc(C(=N)NO)cc3)cc2)c(CCN2CCOCC2)s1 [Example 18, N-hydroxy-4-(5-{4-[2-methyl-5-(2-morpholin-4-yl-ethyl)-thiazol-4-yl]-phenoxy}-pentyloxy)-benzamidine]			100%	94.4%		99.7%	97.3%		139%
N=C(NO)c1ccc(OCCCCCOc2ccc(-c3nc(N4CCOCC4)sc3CCN3CCOCC3)cc2)cc1 [Example 59, N-hydroxy-4-(5-{4-[2-morpholin-4-yl-5-(2-morpholin-4-yl-ethyl)-thiazol-4-yl]-phenoxy}-pentyloxy)-benzamidine]	58%	5.66%							
CNC(=O)c1sc(N)nc1-c1ccc(OCCCCCOc2ccc(C(=N)NO)cc2)cc1 [Example 72, N-hydroxy-4-{5-[4-(2-amino-5-methylcarbamoyl-thiazol-4-yl)-phenoxy]-pentyloxy}-benzamidine]	97.6%							95.6%	
CNc1nc(-c2ccc(OCCCCCOc3ccc(C(=N)NO)cc3)cc2)c(CCN2CCOCC2)s1 [Example 47, N-hydroxy-4-(5-{4-[2-methylamino-5-(2-morpholin-4-yl-ethyl)-thiazol-4-yl]-phenoxy}-pentyloxy)-benzamidine]	89.6%	5.77%							
CN(C)c1nc(-c2ccc(OCCCCCOc3ccc(C(=N)NO)cc3)cc2)c(CCN2CCOCC2)s1 [Example 53, N-hydroxy-4-(5-{4-[2-dimethylamino-5-(2-morpholin-4-yl-ethyl)-thiazol-4-yl]-phenoxy}-pentyloxy)-benzamidine]	99.3%	25.6%							
CNc1nc(-c2ccc(OCCCCCOc3ccc(C(=N)NO)cc3)cc2)c(CCNCCN2CCOCC2)s1 [Example 50, N-hydroxy-4-[5-(4-{2-methylamino-5-[2-(2-morpholin-4-yl-ethylamino)-ethyl]-thiazol-4-yl}-phenoxy)-pentyloxy]-benzamidine]	37%			97.2%		93.6%	92.8%		
N=C(NO)c1ccc(OCCCCCOc2ccc(-c3nc(C4CCCCC4)sc3CCN3CCOCC3)cc2)cc1 [Example 33, N-hydroxy-4-(5-{4-[2-cyclohexyl-5-(2-morpholin-4-yl-ethyl)-thiazol-4-yl]-phenoxy}-pentyloxy)-benzamidine]			92%		26.3%				
N=C(NO)c1ccc(OCCCCCOc2ccc(-c3nc(C4CCCCC4)sc3CCNCCN3CCOCC3)cc2)cc1 [Example 35, N-hydroxy-4-[5-(4-{2-cyclohexyl-5-[2-(2-morpholin-4-yl-ethylamino)-ethyl]-thiazol-4-yl}-phenoxy)-pentyloxy]-benzamidine]			100%	98.6%		115.7%	81.6%		
N=C(NO)c1ccc(OCCCCCOc2ccc(-c3nc(C4CCCCC4)sc3CCNC3CC3)cc2)cc1 [Example 39, N-hydroxy-4-(5-{4-[2-cyclohexyl-5-(2-cyclopropylamino-ethyl)-thiazol-4-yl]-phenoxy}-pentyloxy)-benzamidine]	100%			85.0%		111.0%	93.1%		
N=C(NO)c1ccc(OCCCCCOc2ccc(-c3nc(N4CCOCC4)sc3CCNCCN3CCOCC3)cc2)cc1 [Example 62, N-hydroxy-4-[5-(4-{2-morpholin-4-yl-5-[2-(2-morpholin-4-yl-ethylamino)-ethyl]-thiazol-4-yl}-phenoxy)-pentyloxy]-benzamidine]	43.6%			97.0%		95.1%	92.7%		
CCCN(CCC)CCc1sc(C2CCCCC2)nc1-c1ccc(OCCCCCOc2ccc(C(=N)NO)cc2)cc1 [Example 38, N-hydroxy-4-(5-{4-[2-cyclohexyl-5-(2-dipropylamino-ethyl)-thiazol-4-yl]-phenoxy}-pentyloxy)-benzamidine]	100%			104.7%		96.2%	94.9%		
N=C(NO)c1ccc(OCCCCCOc2ccc(-c3nc(N(CCN4CCOCC4)Cc4ccccc4)sc3CCN3CCOCC3)cc2)cc1 [Example 56, N-hydroxy-4-(5-{4-[2-[benzyl-(2-morpholin-4-yl-ethyl)-amino]-5-(2-morpholin-4-yl-ethyl)-thiazol-4-yl]-phenoxy}-pentyloxy)-benzamidine]	100%			86.0%		98.8%	84.0%		
N=C(NO)c1ccc(OCCCCCOc2ccc(-c3nc(N)sc3CCNCCN3CCOCC3)cc2)cc1 [Example 40, N-hydroxy-4-[5-(4-{2-amino-5-[2-(2-morpholin-4-yl-ethylamino)-ethyl]-thiazol-4-yl}-phenoxy)-pentyloxy]-benzamidine]	24.6%			102.2%		103.2%	99.7%		

Source: patent US7943646B2, “Benzamidine derivative, process for the preparation thereof and pharmaceutical composition comprising same” (Dong Wha Pharmaceutical Co., Ltd., priority 2006, dated 2011)
